# Results published in US20010004460A1, “PROCESS FOR THE PREPARATION OF RICE SEED FOR SOWING” (priority 1995, published 2001).
# Columns and labels:
# rice seeds [1] = assay: Stand establishment of pregerminated rice seed treated with mancozeb slurry, flown onto flooded fields; assay type: in vivo; conditions: slurry at 19-22 fluid ounces per hundred pounds of seed
# rice seeds [2] = assay: Seedling growth of pregerminated rice seed coated with gibberellic acid, sown by plane in flooded field
# rice seeds [3] = conditions: in vivo
# Procedure: Seed was tested for germination in an incubator and also flown onto a flooded field under standard agricultural practices.
compound,measurement,setting,value
"[[1,2-ethanediylbis[carbamodithioato]](2-)]manganese mixture with [[1,2-ethanediylbis [carbamodithioato]](2—)]zinc [mancozeb]",stand of rice plants established,rice seeds [1],acceptable stand
C=C1C[C@]23C[C@@]1(O)CC[C@H]2[C@@]12C=C[C@H](O)[C@@](C)(C(=O)O1)[C@H]2[C@@H]3C(=O)O [gibberellic acid],size of root relative to shoot,rice seeds [2]; 3 to 10 days after sowing,approximately the same size
same,resistance of seedlings to wind,"rice seeds [2]; 3 to 10 days after sowing, located in the soil at a depth of 0 to 2 mm",highly resistant to wind
same,appearance of germinated seeds after machine mixing,"rice seeds [2]; […], radicles 1 to 8 mm",appeared undamaged
"N#Cc1nn(-c2c(Cl)cc(C(F)(F)F)cc2Cl)c(N)c1[S+]([O-])C(F)(F)F (stereo not drawn) [fipronil, 5-amino-1-(2,6-dichloro-4-trifluoromethylphenyl)-4-trifluoromethylsulfinyl-3-cyanopyrazole]",appearance of pregerminated seeds after machine mixing,rice seeds [3],appeared undamaged
same,stand establishment,rice seeds [3],the same as untreated seed
